Where “and” joins values, the source holds several entries; their conditions need not be identical. Equal values may be shown once.
Tested on: collagen-induced arthritis
Experiment: Collagen-induced arthritis (CIA) model in rats: body weight, paw volume, clinical scores, clinical observations; on Average detailed clinical score, left hind limb: key of the grades not given here; on Average detailed clinical score, right hind limb: key of the grades not given here; on Detailed Clinical Scores: left forelimb: key of the grades not given here; on Detailed Clinical Scores: left hind limb: key of the grades not given here; on Detailed Clinical Scores: right forelimb: key of the grades not given here; on Detailed Clinical Scores: right hind limb: key of the grades not given here; on Detailed Clinical Scores: score: key of the grades not given here; on Mean overall clinical score ± SD: key of the grades not given here; on overall clinical score: key of the grades not given here
Conditions: for Average detailed clinical score, left hind limb / Average detailed clinical score, right forelimb / Average detailed clinical score, right hind limb / Average detailed clinical score, score / Mean overall clinical score ± SD / Overall clinical score / Average detailed clinical score, left forelimb / Detailed Clinical Scores: left forelimb / Detailed Clinical Scores: left hind limb / Detailed Clinical Scores: right forelimb / Detailed Clinical Scores: right hind limb / Detailed Clinical Scores: score: CIA rats; for Overall clinical score: individual animals #1-8; for Mean animal paw volume ± SD: group mean; for Animal paw volume percent change: individual animals; for Detailed Clinical Scores: left forelimb / Detailed Clinical Scores: left hind limb / Detailed Clinical Scores: right forelimb / Detailed Clinical Scores: right hind limb / Detailed Clinical Scores: score: individual animals ID 1-8
Procedure: Prior to be randomly placed in treatment groups, animals were weighed, and paw volume was measured. Once randomly assigned to treatment groups, on Day 0, animals in groups 2-9 were immunized by subcutaneous injection at the base of the tail.
The immunization comprised 100 μL of the CFA+Collagen emulsion (prepared according to the method in Experimental Method A). Animals in group one received no immunization. Seven days after the first injection, animals in groups 2-9 received a booster immunization comprising 200 μL of the IFA+Collagen emulsion (prepared according to the method in Experimental Method A).
Starting on Day 0, animals in group 1 and 2 were administered daily doses of the vehicle per os (P.O.) for 21 days. […] The twice daily doses for animals in groups 4-9 were 8 hours apart (e.g., the first dose at 8:00 AM and the second dose at 4:00 PM).
Body weight of all animals was recorded daily for the 21-day period. Blind clinical scores on all four limbs were conducted for all animals in the study. Animals were assessed prior to receiving their first dose of the compound or control, and scores for each limb were combined to a total daily score for each animal. Clinical score assessments were performed on Day 0, 6, 12, 13, 14, 15, 18, 19, and 21 (for a total of 9 daily scores).
Paw volume was recorded for each animal on Day 0, 6, 12, 13, 14, 15, 18, 19, and 21 (for a total of 9 measurements). To measure paw volume, animals were gently held with one hand while the hind paw was placed into a plethysmometer with the other hand. Lipid displacement by the paw was recorded and used to represent paw volume.
All data measured and recorded was analyzed using SPSS 16.0 software. Groups were compared using one-way ANOVA and significance was set at p<0.05.

CNC(=O)c1[nH]c(C(=O)NC2CCC2)cc1O[C@@H](C)c1ccccc1 (stereo in doubt) [Example 101, N^5-cyclobutyl-N^2-methyl-3-(1-phenylethoxy)-1H-pyrrole-2,5-dicarboxamide]
Average detailed clinical score, left hind limb (Day 15, 3 mg/kg): 2.00 | Average detailed clinical score, right forelimb (Day 15, 3 mg/kg): 0.25 | Average detailed clinical score, right hind limb (Day 15, 3 mg/kg): 2.13 | Average detailed clinical score, score (Day 15, 3 mg/kg): 4.38 | Mean overall clinical score ± SD (Day 15, 3 mg/kg): 4 ± 2 | Overall clinical score (Day 15, 3 mg/kg): 2 and 3 (3×) and 6 (2×) and 8 and 4 | Average detailed clinical score, left forelimb (Day 15, 10 mg/kg): 0.00 | Average detailed clinical score, left hind limb (Day 15, 10 mg/kg): 1.75 | Average detailed clinical score, right forelimb (Day 15, 10 mg/kg): 0.00 | Average detailed clinical score, right hind limb (Day 15, 10 mg/kg): 1.50 | Average detailed clinical score, score (Day 15, 10 mg/kg): 3.25 | Mean overall clinical score ± SD (Day 15, 10 mg/kg): 3 ± 3 | Overall clinical score (Day 15, 10 mg/kg): 5 and 4 and 7 | Average detailed clinical score, left forelimb (Day 15, 30 mg/kg): 0.00 | Average detailed clinical score, left hind limb (Day 15, 30 mg/kg): 0.38 | Average detailed clinical score, right forelimb (Day 15, 30 mg/kg): 0.00 | Average detailed clinical score, right hind limb (Day 15, 30 mg/kg): 0.50 | Average detailed clinical score, score (Day 15, 30 mg/kg): 0.88 | Mean overall clinical score ± SD (Day 15, 30 mg/kg): 1 ± 1 | Mean animal paw volume ± SD (Day 18, L paw, 3 mg/kg): 2.49 mL | Animal paw volume percent change (Day 18, L paw, 3 mg/kg): 83.52% and 101.14% and 98.86% and 81.04% and 106.51% and 80.59% and 82.40% | Mean animal paw volume ± SD (Day 18, L paw, 10 mg/kg): 2.08 mL | Animal paw volume percent change (Day 18, L paw, 10 mg/kg): 72.92% and 61.90% and 97.28% and 109.73% and 15.71% and 76.54% | Mean animal paw volume ± SD (Day 18, L paw, 30 mg/kg): 1.70 mL | Mean animal paw volume ± SD (Day 18, R paw, 3 mg/kg): 2.53 mL | Animal paw volume percent change (Day 18, R paw, 3 mg/kg): 67.68% and 91.39% and 100.38% and 76.49% and 106.51% and 89.22% and 86.89% | Mean animal paw volume ± SD (Day 18, R paw, 10 mg/kg): 2.02 mL | Animal paw volume percent change (Day 18, R paw, 10 mg/kg): 58.36% and 65.34% and 94.21% and 111.20% and 22.39% and 46.36% | Mean animal paw volume ± SD (Day 18, R paw, 30 mg/kg): 1.63 mL | Detailed Clinical Scores: left forelimb (Day 18, 3 mg/kg): 0 | Detailed Clinical Scores: left hind limb (Day 18, 3 mg/kg): 3 and 4 | Detailed Clinical Scores: right forelimb (Day 18, 3 mg/kg): 0 | Detailed Clinical Scores: right hind limb (Day 18, 3 mg/kg): 4 and 3 | Detailed Clinical Scores: score (Day 18, 3 mg/kg): 7 | Average detailed clinical score, left forelimb (Day 18, 3 mg/kg): 0.50 | Average detailed clinical score, left hind limb (Day 18, 3 mg/kg): 3.88 | Average detailed clinical score, right forelimb (Day 18, 3 mg/kg): 0.50 | Average detailed clinical score, right hind limb (Day 18, 3 mg/kg): 3.88 | Average detailed clinical score, score (Day 18, 3 mg/kg): 8.75 | Mean overall clinical score ± SD (Day 18, 3 mg/kg): 9 ± 2 | Overall clinical score (Day 18, 3 mg/kg): 7 (2×) and 8 (4×) and 12 (2×) | Average detailed clinical score, left forelimb (Day 18, 10 mg/kg): 0.00 | Average detailed clinical score, left hind limb (Day 18, 10 mg/kg): 2.50 | Average detailed clinical score, right forelimb (Day 18, 10 mg/kg): 0.88 | Average detailed clinical score, right hind limb (Day 18, 10 mg/kg): 2.25 | Average detailed clinical score, score (Day 18, 10 mg/kg): 5.63 | Mean overall clinical score ± SD (Day 18, 10 mg/kg): 6 ± 4 | Overall clinical score (Day 18, 10 mg/kg): 7 and 6 and 12 | Average detailed clinical score, left forelimb (Day 18, 30 mg/kg): 0.00 | Average detailed clinical score, left hind limb (Day 18, 30 mg/kg): 1.13 | Average detailed clinical score, right forelimb (Day 18, 30 mg/kg): 0.00 | Average detailed clinical score, right hind limb (Day 18, 30 mg/kg): 0.88 | Average detailed clinical score, score (Day 18, 30 mg/kg): 2.00 | Mean overall clinical score ± SD (Day 18, 30 mg/kg): 2 ± 2 | Mean animal paw volume ± SD (Day 19, L paw, 3 mg/kg): 2.64 mL | Animal paw volume percent change (Day 19, L paw, 3 mg/kg): 91.95% and 116.35% and 108.75% and 85.50% and 107.28% and 90.11% and 81.65% | Mean animal paw volume ± SD (Day 19, L paw, 10 mg/kg): 2.07 mL | Animal paw volume percent change (Day 19, L paw, 10 mg/kg): 71.48% and 61.51% and 93.39% and 105.45% and 13.03% | Mean animal paw volume ± SD (Day 19, L paw, 30 mg/kg): 1.76 mL | Mean animal paw volume ± SD (Day 19, R paw, 3 mg/kg): 2.60 mL | Animal paw volume percent change (Day 19, R paw, 3 mg/kg): 67.68% and 117.60% and 98.86% and 76.49% and 104.98% and 107.81% and 86.14% | Mean animal paw volume ± SD (Day 19, R paw, 10 mg/kg): 2.02 mL | Animal paw volume percent change (Day 19, R paw, 10 mg/kg): 67.62% and 63.35% and 90.35% and 108.88% and 21.62% | Mean animal paw volume ± SD (Day 19, R paw, 30 mg/kg): 1.74 mL | Detailed Clinical Scores: left forelimb (Day 19, 3 mg/kg): 1 and 0 | Detailed Clinical Scores: left hind limb (Day 19, 3 mg/kg): 4 | Detailed Clinical Scores: right forelimb (Day 19, 3 mg/kg): 0 | Detailed Clinical Scores: right hind limb (Day 19, 3 mg/kg): 4 and 3 | Detailed Clinical Scores: score (Day 19, 3 mg/kg): 9 and 7 | Average detailed clinical score, left forelimb (Day 19, 3 mg/kg): 1.13 | Average detailed clinical score, left hind limb (Day 19, 3 mg/kg): 4.00 | Average detailed clinical score, right forelimb (Day 19, 3 mg/kg): 1.00 | Average detailed clinical score, right hind limb (Day 19, 3 mg/kg): 3.75 | Average detailed clinical score, score (Day 19, 3 mg/kg): 9.88 | Mean overall clinical score ± SD (Day 19, 3 mg/kg): 10 ± 3 | Overall clinical score (Day 19, 3 mg/kg): 9 and 7 (2×) and 8 (2×) and 16 and 12 (2×) | Average detailed clinical score, left forelimb (Day 19, 10 mg/kg): 0.00 | Average detailed clinical score, left hind limb (Day 19, 10 mg/kg): 2.38 | Average detailed clinical score, right forelimb (Day 19, 10 mg/kg): 1.13 | Average detailed clinical score, right hind limb (Day 19, 10 mg/kg): 2.88 | Average detailed clinical score, score (Day 19, 10 mg/kg): 6.38 | Mean overall clinical score ± SD (Day 19, 10 mg/kg): 6 ± 4 | Overall clinical score (Day 19, 10 mg/kg): 7 and 6 and 12 | Average detailed clinical score, left forelimb (Day 19, 30 mg/kg): 0.00 | Average detailed clinical score, left hind limb (Day 19, 30 mg/kg): 1.63 | Average detailed clinical score, right forelimb (Day 19, 30 mg/kg): 0.25 | Average detailed clinical score, right hind limb (Day 19, 30 mg/kg): 1.75 | Average detailed clinical score, score (Day 19, 30 mg/kg): 3.63 | Mean overall clinical score ± SD (Day 19, 30 mg/kg): 4 ± 3 | Mean animal paw volume ± SD (Day 21, L paw, 3 mg/kg): 2.67 mL | Animal paw volume percent change (Day 21, L paw, 3 mg/kg): 90.42% and 128.52% and 109.51% and 86.25% and 104.98% and 93.04% and 80.15% | Mean animal paw volume ± SD (Day 21, L paw, 10 mg/kg): 2.09 mL | Animal paw volume percent change (Day 21, L paw, 10 mg/kg): 71.48% and 60.71% and 92.61% and 105.06% and 13.03% | Mean animal paw volume ± SD (Day 21, L paw, 30 mg/kg): 1.82 mL | Mean animal paw volume ± SD (Day 21, R paw, 3 mg/kg): 2.59 mL | Animal paw volume percent change (Day 21, R paw, 3 mg/kg): 69.20% and 117.60% and 97.35% and 74.25% and 106.13% and 105.58% and 84.64% | Mean animal paw volume ± SD (Day 21, R paw, 10 mg/kg): 2.08 mL | Animal paw volume percent change (Day 21, R paw, 10 mg/kg): 66.90% and 62.15% and 89.58% and 106.95% and 21.62% | Mean animal paw volume ± SD (Day 21, R paw, 30 mg/kg): 1.79 mL | Average detailed clinical score, left forelimb (Day 21, 3 mg/kg): 1.00 | Average detailed clinical score, left hind limb (Day 21, 3 mg/kg): 4.00 | Average detailed clinical score, right forelimb (Day 21, 3 mg/kg): 1.00 | Average detailed clinical score, right hind limb (Day 21, 3 mg/kg): 3.75 | Average detailed clinical score, score (Day 21, 3 mg/kg): 9.75 | Mean overall clinical score ± SD (Day 21, 3 mg/kg): 10 ± 3 | Overall clinical score (Day 21, 3 mg/kg): 9 and 7 (2×) and 8 (2×) and 14 and 13 and 12 | Average detailed clinical score, left forelimb (Day 21, 10 mg/kg): 0.00 | Average detailed clinical score, left hind limb (Day 21, 10 mg/kg): 2.50 | Average detailed clinical score, right forelimb (Day 21, 10 mg/kg): 1.25 | Average detailed clinical score, right hind limb (Day 21, 10 mg/kg): 2.75 | Average detailed clinical score, score (Day 21, 10 mg/kg): 6.50 | Mean overall clinical score ± SD (Day 21, 10 mg/kg): 7 ± 4 | Overall clinical score (Day 21, 10 mg/kg): 7 and 6 and 12 (2×) | Average detailed clinical score, left forelimb (Day 21, 30 mg/kg): 0.00 | Average detailed clinical score, left hind limb (Day 21, 30 mg/kg): 1.88 | Average detailed clinical score, right forelimb (Day 21, 30 mg/kg): 0.13 | Average detailed clinical score, right hind limb (Day 21, 30 mg/kg): 1.63 | Average detailed clinical score, score (Day 21, 30 mg/kg): 3.63 | Mean overall clinical score ± SD (Day 21, 30 mg/kg): 4 ± 3

From patent publication US20250263370A1 (Tay Therapeutics Limited, priority 2022, published 2025)
